Assay results from US20250059198A1, “BRM DEGRADING COMPOUNDS AND ASSOCIATED METHODS OF USE” (Arvinas Operations, Inc., priority 2021, published 2025).

Target: T1, BRM (Homo sapiens, UniProt P51531)
T1 construct: Western Blot Screen of BRM Degradation in SW1573 Cells; endogenous in cells; host or cells: SW1573 cells
Assay: BRM degradation (Dmax and DC50) in SW1573 cells, Western blot screen / In-Cell Western screen
Assay type: cell-based
Conditions: overnight (18-20 hours) treatment; for Dmax: read-out: Dmax (%)** (% degraded)
Method in brief: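 Dmax and DC50 were derived from BRM levels normalised to an alpha-tubulin control, measured by chemiluminescent Western blotting of lysates or by PFA-fixed In-Cell Western on LI-COR Odyssey. SW1573 cells received compound overnight (18–20 h, 0.1% DMSO final).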

T1 sequence (P51531 whole entry): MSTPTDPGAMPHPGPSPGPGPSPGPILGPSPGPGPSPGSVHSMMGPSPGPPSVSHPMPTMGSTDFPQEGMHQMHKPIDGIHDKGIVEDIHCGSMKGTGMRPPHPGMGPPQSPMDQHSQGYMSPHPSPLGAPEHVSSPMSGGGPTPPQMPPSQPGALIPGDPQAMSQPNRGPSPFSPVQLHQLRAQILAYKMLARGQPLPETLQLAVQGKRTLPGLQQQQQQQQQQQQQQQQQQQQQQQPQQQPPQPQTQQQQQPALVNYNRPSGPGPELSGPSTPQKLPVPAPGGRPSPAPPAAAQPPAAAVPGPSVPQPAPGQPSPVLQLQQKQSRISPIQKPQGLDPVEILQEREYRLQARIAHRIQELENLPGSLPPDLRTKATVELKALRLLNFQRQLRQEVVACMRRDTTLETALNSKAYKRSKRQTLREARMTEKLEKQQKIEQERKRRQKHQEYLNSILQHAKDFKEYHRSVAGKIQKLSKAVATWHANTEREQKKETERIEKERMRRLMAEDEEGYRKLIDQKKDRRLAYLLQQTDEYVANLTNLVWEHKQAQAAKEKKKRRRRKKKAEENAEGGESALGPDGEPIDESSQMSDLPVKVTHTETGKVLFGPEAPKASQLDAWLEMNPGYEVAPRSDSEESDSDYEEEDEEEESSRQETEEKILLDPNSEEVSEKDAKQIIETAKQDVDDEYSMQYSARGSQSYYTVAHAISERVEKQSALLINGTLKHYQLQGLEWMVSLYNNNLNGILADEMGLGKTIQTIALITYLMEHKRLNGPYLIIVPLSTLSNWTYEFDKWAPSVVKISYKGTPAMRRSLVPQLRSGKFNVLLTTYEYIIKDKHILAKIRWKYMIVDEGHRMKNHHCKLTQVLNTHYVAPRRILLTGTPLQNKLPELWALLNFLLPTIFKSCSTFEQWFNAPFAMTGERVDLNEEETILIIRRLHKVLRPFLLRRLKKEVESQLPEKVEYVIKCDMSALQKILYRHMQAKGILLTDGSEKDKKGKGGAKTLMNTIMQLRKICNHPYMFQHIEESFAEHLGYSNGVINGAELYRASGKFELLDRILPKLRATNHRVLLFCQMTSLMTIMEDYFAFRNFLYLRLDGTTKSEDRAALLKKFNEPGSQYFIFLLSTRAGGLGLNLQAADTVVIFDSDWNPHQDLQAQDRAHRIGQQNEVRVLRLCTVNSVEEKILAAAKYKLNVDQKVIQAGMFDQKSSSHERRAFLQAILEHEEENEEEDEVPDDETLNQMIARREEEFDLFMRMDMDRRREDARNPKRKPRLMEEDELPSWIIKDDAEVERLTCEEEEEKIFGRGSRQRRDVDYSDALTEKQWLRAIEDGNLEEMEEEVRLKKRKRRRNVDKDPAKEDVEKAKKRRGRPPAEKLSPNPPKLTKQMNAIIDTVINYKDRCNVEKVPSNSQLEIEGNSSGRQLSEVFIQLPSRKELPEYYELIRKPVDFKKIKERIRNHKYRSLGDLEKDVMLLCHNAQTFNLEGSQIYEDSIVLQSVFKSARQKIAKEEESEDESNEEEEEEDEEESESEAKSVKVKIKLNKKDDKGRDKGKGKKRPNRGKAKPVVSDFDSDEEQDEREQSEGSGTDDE

| SMILES | DC50 [nM] | Dmax [%] |
| --- | --- | --- |
| Cc1ncsc1-c1ccc([C@H](C)NC(=O)[C@@H]2C[C@@H](O)CN2C(=O)[C@@H](c2cc(N3CCC(CN4CCC5(CC4)CC(C#CC(C)n4cc(-c6cc(-c7ccccc7O)nnc6N)cn4)C5)CC3)no2)C(C)C)cc1 (stereo partly drawn) [Compound 36, (2S,4R)-1-[(2R)-2-[3-(4-{[2-(3-{4-[3-amino-6-(2-hydroxyphenyl)pyridazin-4-yl]-1H-pyrazol-1-yl}but-1-yn-1-yl)-7-azaspiro[3.5]nonan-7-yl]methyl}piperidin-1-yl)-1,2-oxazol-5-yl]-3-methylbutanoyl]-4-hydroxy-N-[(1S)-1-[4-(4-methyl-1,3-thiazol-5-yl)phenyl]ethyl]pyrrolidine-2-carboxamide] | < 2.5 | > 75 |
| Cc1ncsc1-c1ccc([C@H](CC(=O)N2CCC(CN3CCC(O[C@H]4C[C@H](Oc5cc(N6C7CCC6CN(c6cc(-c8ccccc8O)nnc6N)C7)ccn5)C4)CC3)CC2)NC(=O)[C@@H]2C[C@@H](O)CN2C(=O)[C@@H](C(C)C)N2Cc3ccccc3C2=O)cc1 [Compound 37, (2S,4R)-4-hydroxy-N-[(1S)-1-[4-(4-methyl-1,3-thiazol-5-yl)phenyl]-3-oxo-3-[4-({4-[(1r,3r)-3-[(4-{3-[3-amino-6-(2-hydroxyphenyl)pyridazin-4-yl]-3,8-diazabicyclo[3.2.1]octan-8-yl}pyridin-2-yl)oxy]cyclobutoxy]piperidin-1-yl}methyl)piperidin-1-yl]propyl]-1-[(2R)-3-methyl-2-(1-oxo-2,3-dihydro-1H-isoindol-2-yl)butanoyl]pyrrolidine-2-carboxamide] | ≥ 30 |  |
| Cc1ncsc1-c1ccc([C@H](CC(=O)N2CCC(CN3CCC(O[C@H]4C[C@H](Oc5cc(N6C7CCC6CN(c6cc(-c8ccccc8O)nnc6N)C7)ccn5)C4)CC3)CC2)NC(=O)[C@@H]2C[C@@H](O)CN2C(=O)[C@H](C(C)C)N2Cc3ccccc3C2=O)cc1 [Compound 38, (2S,4R)-4-hydroxy-N-[(1S)-1-[4-(4-methyl-1,3-thiazol-5-yl)phenyl]-3-oxo-3-[4-({4-[(1r,3r)-3-[(4-{3-[3-amino-6-(2-hydroxyphenyl)pyridazin-4-yl]-3,8-diazabicyclo[3.2.1]octan-8-yl}pyridin-2-yl)oxy]cyclobutoxy]piperidin-1-yl}methyl)piperidin-1-yl]propyl]-1-[(2S)-3-methyl-2-(1-oxo-2,3-dihydro-1H-isoindol-2-yl)butanoyl]pyrrolidine-2-carboxamide] | < 2.5 | > 75 |
| CC(C)[C@@H](C(=O)N1C[C@H](O)C[C@H]1C(=O)N[C@@H](C)c1ccc(-c2ccnn2C)cc1)c1cc(N2CCC(CN3CCC(CN4CCC5(CC4)CC(Oc4cc(N6C7CCC6CN(c6cc(-c8ccccc8O)nnc6N)C7)ccn4)C5)CC3)CC2)no1 [Compound 39, (2S,4R)-1-[(2R)-2-[3-(4-{[4-({2-[(4-{3-[3-amino-6-(2-hydroxyphenyl)pyridazin-4-yl]-3,8-diazabicyclo[3.2.1]octan-8-yl}pyridin-2-yl)oxy]-7-azaspiro[3.5]nonan-7-yl}methyl)piperidin-1-yl]methyl}piperidin-1-yl)-1,2-oxazol-5-yl]-3-methylbutanoyl]-4-hydroxy-N-[(1S)-1-[4-(1-methyl-1H-pyrazol-5-yl)phenyl]ethyl]pyrrolidine-2-carboxamide] | < 2.5 | > 75 |
| CC(C)[C@@H](C(=O)N1C[C@H](O)C[C@H]1C(=O)N[C@@H](C)c1ccc(-c2c(F)cnn2C)cc1)c1cc(N2CCC(CN3CCC(O[C@H]4C[C@H](Oc5cc(N6CCN(c7cc(-c8ccccc8O)nnc7N)CC6)ccn5)C4)CC3)CC2)no1 [Compound 40, (2S,4R)-N-[(1S)-1-[4-(4-fluoro-1-methyl-1H-pyrazol-5-yl)phenyl]ethyl]-4-hydroxy-1-[(2R)-3-methyl-2-{3-[4-({4-[(1r,3r)-3-[(4-{4-[3-amino-6-(2-hydroxyphenyl)pyridazin-4-yl]piperazin-1-yl}pyridin-2-yl)oxy]cyclobutoxy]piperidin-1-yl}methyl)piperidin-1-yl]-1,2-oxazol-5-yl}butanoyl]pyrrolidine-2-carboxamide] | < 2.5 | > 75 |
| CC(C)[C@@H](C(=O)N1C[C@H](O)C[C@H]1C(=O)N[C@@H](C)c1ccc(-c2ccnn2C)cc1)c1cc(N2CCC(CN3CCC(Oc4cc(N5CCN(c6cc(-c7ccccc7O)nnc6N)CC5)ccn4)CC3)CC2)no1 [Compound 41, (2S,4R)-1-[(2R)-2-{3-[4-({4-[(4-{4-[3-amino-6-(2-hydroxyphenyl)pyridazin-4-yl]piperazin-1-yl}pyridin-2-yl)oxy]piperidin-1-yl}methyl)piperidin-1-yl]-1,2-oxazol-5-yl}-3-methylbutanoyl]-4-hydroxy-N-[(1S)-1-[4-(1-methyl-1H-pyrazol-5-yl)phenyl]ethyl]pyrrolidine-2-carboxamide] | < 2.5 | > 75 |
| CC(C)[C@@H](C(=O)N1C[C@H](O)C[C@H]1C(=O)N[C@@H](C)c1ccc(-c2ccnn2C)cc1)c1cc(N2CCC(CN3CCC(O[C@H]4C[C@H](N5CCC(C(C)n6cc(C#Cc7cc(-c8ccccc8O)nnc7N)cn6)CC5)C4)CC3)CC2)no1 (stereo partly drawn) [Compound 42, (2S,4R)-4-hydroxy-N-[(1S)-1-[4-(1-methyl-1H-pyrazol-5-yl)phenyl]ethyl]-1-[(2R)-3-methyl-2-{3-[4-({4-[(1r,3r)-3-{4-[1-(4-{2-[3-amino-6-(2-hydroxyphenyl)pyridazin-4-yl]ethynyl}-1H-pyrazol-1-yl)ethyl]piperidin-1-yl}cyclobutoxy]piperidin-1-yl}methyl)piperidin-1-yl]-1,2-oxazol-5-yl}butanoyl]pyrrolidine-2-carboxamide] | < 2.5 | > 75 |
| Cc1ncsc1-c1ccc([C@H](C)NC(=O)[C@@H]2C[C@@H](O)CN2C(=O)[C@@H](c2cc(N3CCC(CN4CCC(N5CCC6(CC5)CC(Oc5cc(N7C8CCC7CN(c7cc(-c9ccccc9O)nnc7N)C8)ccn5)C6)CC4)CC3)no2)C(C)C)cc1 [Compound 43, (2S,4R)-1-[(2R)-2-(3-{4-[(4-{2-[(4-{3-[3-amino-6-(2-hydroxyphenyl)pyridazin-4-yl]-3,8-diazabicyclo[3.2.1]octan-8-yl}pyridin-2-yl)oxy]-7-azaspiro[3.5]nonan-7-yl}piperidin-1-yl)methyl]piperidin-1-yl}-1,2-oxazol-5-yl)-3-methylbutanoyl]-4-hydroxy-N-[(1S)-1-[4-(4-methyl-1,3-thiazol-5-yl)phenyl]ethyl]pyrrolidine-2-carboxamide] | < 2.5 | > 75 |
| Cc1ncsc1-c1ccc([C@H](C)NC(=O)[C@@H]2C[C@@H](O)CN2C(=O)[C@@H](c2cc(N3CCC(CN4CCC(O[C@H]5C[C@H](N6CCC7(CC6)CC(N6C8CCC6CN(c6cc(-c9ccccc9O)nnc6N)C8)C7)C5)CC4)CC3)no2)C(C)C)cc1 [Compound 44, (2S,4R)-4-hydroxy-N-[(1S)-1-[4-(4-methyl-1,3-thiazol-5-yl)phenyl]ethyl]-1-[(2R)-3-methyl-2-{3-[4-({4-[(1r,3r)-3-(2-{3-[3-amino-6-(2-hydroxyphenyl)pyridazin-4-yl]-3,8-diazabicyclo[3.2.1]octan-8-yl}-7-azaspiro[3.5]nonan-7-yl)cyclobutoxy]piperidin-1-yl}methyl)piperidin-1-yl]-1,2-oxazol-5-yl}butanoyl]pyrrolidine-2-carboxamide] | < 2.5 | > 75 |
| Cc1ncsc1-c1ccc([C@H](C)NC(=O)[C@H]2C[C@@H](O)CN2C(=O)[C@@H](c2cc(N3CCC(CN4CCC(O[C@H]5C[C@H](OC(=O)N6CCN(c7cc(-c8ccccc8O)nnc7N)CC6)C5)CC4)CC3)no2)C(C)C)cc1 [Compound 45, (1rs,3rs)-3-({1-[(1-{5-[(2R)-1-[(2S,4R)-4-hydroxy-2-{[(1S)-1-[4-(4-methyl-1,3-thiazol-5-yl)phenyl]ethyl]carbamoyl}pyrrolidin-1-yl]-3-methyl-1-oxobutan-2-yl]-1,2-oxazol-3-yl}piperidin-4-yl)methyl]piperidin-4-yl}oxy)cyclobutyl 4-[3-amino-6-(2-hydroxyphenyl)pyridazin-4-yl]piperazine-1-carboxylate] | < 2.5 | > 75 |
| CC(C)[C@H](C(=O)N1C[C@H](O)C[C@H]1C(=O)N[C@@H](C)c1ccc(Cl)cc1)c1cc(N2CCC(CN3CCC(O[C@H]4C[C@H](Oc5cc(N6C7CCC6CN(c6cc(-c8ccccc8O)nnc6N)C7)ccn5)C4)CC3)CC2)no1 [Compound 46, (2S,4R)-N-[(1S)-1-(4-chlorophenyl)ethyl]-4-hydroxy-1-[(2S)-3-methyl-2-{3-[4-({4-[(1r,3r)-3-[(4-{3-[3-amino-6-(2-hydroxyphenyl)pyridazin-4-yl]-3,8-diazabicyclo[3.2.1]octan-8-yl}pyridin-2-yl)oxy]cyclobutoxy]piperidin-1-yl}methyl)piperidin-1-yl]-1,2-oxazol-5-yl}butanoyl]pyrrolidine-2-carboxamide] | ≥ 30 |  |
| Cc1ncsc1-c1ccc([C@H](C)NC(=O)[C@@H]2C[C@@H](O)CN2C(=O)[C@@H](c2cc(N3CCC(CN4CCC(O[C@H]5C[C@H](N6CCN(CC7C8CCC7CN(c7cc(-c9ccccc9O)nnc7N)C8)CC6)C5)CC4)CC3)no2)C(C)C)cc1 (stereo partly drawn) [Compound 47, (2S,4R)-4-hydroxy-N-[(1S)-1-[4-(4-methyl-1,3-thiazol-5-yl)phenyl]ethyl]-1-[(2R)-3-methyl-2-{3-[4-({4-[(1r,3r)-3-[4-({3-[3-amino-6-(2-hydroxyphenyl)pyridazin-4-yl]-3-azabicyclo[3.2.1]octan-8-yl}methyl)piperazin-1-yl]cyclobutoxy]piperidin-1-yl}methyl)piperidin-1-yl]-1,2-oxazol-5-yl}butanoyl]pyrrolidine-2-carboxamide] | 2.5 to 10 | > 75 |
